From BindingDB's records for doi:10.1016/s0960-894x(03)00528-6 (Aston University, 2003)

Target: Arachidonate 15-lipoxygenase (Oryctolagus cuniculus)
Test: In vitro inhibitory activity of compound on rabbit reticulocyte 15-lipoxygenase

IC50	SMILES
1.01 µM	O=C(Nc1ccc(O)c(O)c1)c1ccc(NCc2ccccc2O)cc1 [N-(3,4-Dihydroxy-phenyl)-4-(2-hydroxy-benzylamino)-benzamide]
1.51 µM	O=C(Nc1ccc(NC(=O)c2ccccc2O)cc1)Nc1ccc(O)c(O)c1 [N-{4-[3-(3,4-Dihydroxy-phenyl)-ureido]-phenyl}-2-hydroxy-benzamide]
1.47 µM	O=C(/C=C/c1ccc(NC(=O)c2ccccc2O)cc1)Nc1ccc(O)c(O)c1 [N-{4-[2-(3,4-Dihydroxy-phenylcarbamoyl)-vinyl]-phenyl}-2-hydroxy-benzamide]
1.27 µM	O=C(Nc1ccc(O)c(O)c1)c1ccc(NC(=O)c2ccccc2O)cc1 [N-(4-{[(3,4-dihydroxyphenyl)amino]carbonyl}phenyl)-2-hydroxybenzamide]
1.45 µM	O=C(CCc1ccc(NC(=O)c2ccccc2O)cc1)Nc1ccc(O)c(O)c1 [N-{4-[2-(3,4-Dihydroxy-phenylcarbamoyl)-ethyl]-phenyl}-2-hydroxy-benzamide]
